Literature values in patent US9155707B2, “Core-shell microspheres” (Agency for Science, Technology and Research, priority 2011, dated 2015).

Legend:
[1] = reference line in FIG. 10

CCCCN1CCCCC1C(=O)Nc1c(C)cccc1C (stereo not drawn) [Bupivacaine, bupivacaine]
toxic limit of drug permissible in the blood plasma [1]: 4000 ng/mL

O=c1[nH]cc(F)c(=O)[nH]1 [Fluorouracil (5-FU), Fluorouracil]
solubility in water: not in water

O=S1(=O)OC(c2ccc(O)c(Cl)c2)(c2ccc(O)c(Cl)c2)c2ccccc21 [chlorophenol red (CR), chlorophenol red]
solubility in water: not very soluble in water
